Values of other authors, collected in US20190382321A1, “ACID-RESISTANT UREASE INHIBITOR ADDUCT-[…] COMPOSITIONS” (Koch Agronomic Services, LLC, priority 2017, published 2019).

Details: blend of NBPT-containing urea and one or more acidic fertilizers

SMILES: CCCCNP(N)(N)=S [NBPT, N-(n-butyl) thiophosphoric triamide]
- time to almost complete decomposition after blending: 1-2 weeks
